Reference: patent publication US7740867B2, “Method for identification of virulence determinants” (priority 2000, dated 2010)

How the values were obtained:
[1] = test system: M. paratuberculosis strain K-10; assay: Minimal inhibitory concentration (MIC) determination; type: cell-based, Mycobacterium paratuberculosis
Source text: The exact amount of the antimicrobial used will vary with the particular substance and organism in question. In general, the concentration of the antimicrobial should exceed the approximate minimal inhibitory concentration (MIC) for the particular organism being studied. Determination of MIC is routine in the art and can be accomplished by the skilled technician without undue experimentation. […] In another embodiment, the concentration of Bay y 3118 is 5× the MIC. […] In yet another embodiment, the concentration of D-cycloserine is 5× the MIC.

[2] = test system: M. paratuberculosis strain K-10; assay: Susceptibility of growing and non-growing M. paratuberculosis in broth culture to antimicrobial agents; type: cell-based, Mycobacterium paratuberculosis
Method: Antimicrobial agents (antibiotics) tested were the fluoroquinolone Bay y 3118, and D-cycloserine. The aminoglycoside amikacin which kills both growing and non-growing M. paratuberculosis, was included as a control. M. paratuberculosis strain K-10 was grown in complete Middlebrook 7H9 medium containing mycobactin J as described above to an optical density (OD600) of 0.3 to 0.4. For non growing conditions, cells (200 ml) were harvested at room temperature, washed in MSS (Middlebrook 7H9 salt solution: 1.0 g/L KH2PO4, 0.05 g/L MgSO4, NH4SO4, 2.5 g/L Na2HPO4, 0.0005 g/L CaCl2, 0.001 g/L ZnSO4, and 0.001 g/L CuSO4), and resuspended in MSS as a single-cell suspension (Williams et al., J. Clin. Microbiol., 37:304-309, 1999). Aliquots (10 ml at a cell density of 2×10^8 CFU/mL) were placed in sterile tissue culture flasks, and antibiotics were added at the following final concentrations Bay y 3118: 0.075 μg/mL (5×MIC) and 0.3 μg/mL (20×MIC); D-cyloserine: 125 μg/mL (5×MIC) and 500 μg/mL (20×MIC); amikacin: 10 μg/mL (5×MIC), and 40 μg/mL (20×MC). These cultures and a control without antibiotics (0×) were incubated at 37° C. and appropriate dilutions were plated in triplicate onto complete Middlebrook 7H9 medium at various time points. […] For growing conditions, cells were treated as described except that the growth control (0×) was diluted 1:10 and all cells were washed and resuspended in complete medium instead of MSS. The cells were also inoculated into MSS (no-growth control).

[3] = test system: Mycobacterium avium within human macrophages; conditions: reported by Bermudez et al., 1999; cited from earlier work
[4] = 5× the MIC, MSS salt solution (non growing conditions), 37° C., FIG. 3
[5] = 5× the MIC, complete Middlebrook 7H9 medium (growing conditions), 37° C., FIG. 3

SMILES	MIC [1]	effect on non growing bacteria [2, 4]	effect on growing bacteria [2, 5]	killing of growing versus non-growing Mycobacterium avium within human macrophages [3]	susceptibility of bacteria in stasis compared with growing bacteria ([2]; concentration not given (5× and 20× MIC tested))	effect on growing bacteria ([2]; concentration not given (5× and 20× MIC tested), growing conditions)	effect on non growing bacteria ([2]; concentration not given (5× and 20× MIC tested), non growing conditions)	effect on non growing bacteria ([2]; 20× the MIC, MSS salt solution (non growing conditions), 37° C., FIG. 3)	effect on growing bacteria ([2]; 20× the MIC, complete Middlebrook 7H9 medium (growing conditions), 37° C., FIG. 3)
Cl.O=C(O)c1cn(C2CC2)c2c(Cl)c(N3C[C@@H]4CCCN[C@@H]4C3)c(F)cc2c1=O [Bay y 3118]	approximately 0.015 μg/mL	does not kill non growing bacteria	has a bactericidal action on growing bacteria	kill growing but not non-growing	–	–	–	–	–
NCC[C@H](O)C(=O)N[C@@H]1C[C@H](N)[C@@H](O[C@H]2O[C@H](CN)[C@@H](O)[C@H](O)[C@H]2O)[C@H](O)[C@H]1O[C@H]1O[C@H](CO)[C@@H](O)[C@H](N)[C@H]1O [Amikcin, amikacin]	–	–	–	–	particularly more susceptible	bactericidal	bactericidal	–	–
N[C@@H]1CONC1=O [D-cycloserine]	approximately 25 μg/mL	moderate bactericidal effect	moderate bactericidal effect	–	–	–	–	moderate bactericidal effect	moderate bactericidal effect
